Tested on: T1, chitinase from S. griseus
T1 construct: gene chiC; commercial native preparation (Sigma Aldrich), low purity, antibody-reactive band about 23 kDa; authors ascribe it to family 19 chitinase C
Assay: fluorimetric release of 4-methylumbelliferone, Michaelis-Menten fit
Type: biochemical, Streptomyces griseus
Settings: McIlvain's buffer, pH 5.5, 37 °C, 1 h; no flavonoid (control of the quercetin series); apparent; commercial low-purity enzyme
From the text: fluorimetric release of 4-methylumbelliferone, Michaelis-Menten fit on chitinase from S. griseus

Question: `CC(=O)N[C@H]1[C@H](Oc2ccc3c(C)cc(=O)oc3c2)O[C@H](CO)[C@@H](O[C@@H]2O[C@H](CO)[C@@H](O[C@@H]3O[C@H](CO)[C@@H](O)[C@H](O)[C@H]3NC(C)=O)[C@H](O)[C@H]2NC(C)=O)[C@@H]1O` [4-methylumbelliferyl β-d-N,N′,N′-tri-acetyl-chitotrioside] was tested. Which Km did it give?
Answer: 35.4 ± 4.18 µM

Source: PMC6273270, “Flavonoid Interaction with a Chitinase from Grape Berry Skin: Protein Identification and Modulation of the Enzymatic Activity” (Molecules, 2016)
